From patent US6429288B1, “Peptides containing an arginine mimetic for the treatment of bone metabolic disorders, their production, and drugs containing these compounds” (Roche Diagnostics GmbH, priority 1997, dated 2002)

Tested on: primary cultures of osteoblasts from fetal rat calvarias
Test: in vitro DNA-synthesis assay
Format: cell-based
Experimental: Compounds of general formula (I) were tested in an in vitro DNA-synthesis assay. The cells used were primary cultures of osteoblasts from fetal rat calvarias. The experiments were performed in an analogous manner as published in Pfeilschifter et al., Endocrinology 126, 703 (1990).

| Substance | Biological activity in % compared to control (100%) (0.001 μg/ml) [%] | Biological activity in % compared to control (100%) (0.01 μg/ml) [%] | Biological activity in % compared to control (100%) (0.1 μg/ml) [%] | Biological activity in % compared to control (100%) (1.0 μg/ml) [%] | Biological activity in % compared to control (100%) (10 μg/ml) [%] |
| --- | --- | --- | --- | --- | --- |
| Ada-Ava-W | 116 | 152 | 182 | 183 | 229 |
| Ada-SAW | 122 | 148 | 199 | 162 | 188 |
| Ada-Aba-W | 173 | 184 | 228 | 223 | 261 |
